Data on 21 compounds can be found in US11878975B2, “Substituted indole compounds useful as TLR inhibitors” (BRISTOL-MYERS SQUIBB COMPANY, priority 2017, dated 2024).

Holding throughout (format): cell-based
The target of one assay is T1, human TLR7 (Homo sapiens, UniProt Q9NYK1).
T1 construct: host or cells: HEK-Blue cells
T1 sequence (Q9NYK1 27-1049): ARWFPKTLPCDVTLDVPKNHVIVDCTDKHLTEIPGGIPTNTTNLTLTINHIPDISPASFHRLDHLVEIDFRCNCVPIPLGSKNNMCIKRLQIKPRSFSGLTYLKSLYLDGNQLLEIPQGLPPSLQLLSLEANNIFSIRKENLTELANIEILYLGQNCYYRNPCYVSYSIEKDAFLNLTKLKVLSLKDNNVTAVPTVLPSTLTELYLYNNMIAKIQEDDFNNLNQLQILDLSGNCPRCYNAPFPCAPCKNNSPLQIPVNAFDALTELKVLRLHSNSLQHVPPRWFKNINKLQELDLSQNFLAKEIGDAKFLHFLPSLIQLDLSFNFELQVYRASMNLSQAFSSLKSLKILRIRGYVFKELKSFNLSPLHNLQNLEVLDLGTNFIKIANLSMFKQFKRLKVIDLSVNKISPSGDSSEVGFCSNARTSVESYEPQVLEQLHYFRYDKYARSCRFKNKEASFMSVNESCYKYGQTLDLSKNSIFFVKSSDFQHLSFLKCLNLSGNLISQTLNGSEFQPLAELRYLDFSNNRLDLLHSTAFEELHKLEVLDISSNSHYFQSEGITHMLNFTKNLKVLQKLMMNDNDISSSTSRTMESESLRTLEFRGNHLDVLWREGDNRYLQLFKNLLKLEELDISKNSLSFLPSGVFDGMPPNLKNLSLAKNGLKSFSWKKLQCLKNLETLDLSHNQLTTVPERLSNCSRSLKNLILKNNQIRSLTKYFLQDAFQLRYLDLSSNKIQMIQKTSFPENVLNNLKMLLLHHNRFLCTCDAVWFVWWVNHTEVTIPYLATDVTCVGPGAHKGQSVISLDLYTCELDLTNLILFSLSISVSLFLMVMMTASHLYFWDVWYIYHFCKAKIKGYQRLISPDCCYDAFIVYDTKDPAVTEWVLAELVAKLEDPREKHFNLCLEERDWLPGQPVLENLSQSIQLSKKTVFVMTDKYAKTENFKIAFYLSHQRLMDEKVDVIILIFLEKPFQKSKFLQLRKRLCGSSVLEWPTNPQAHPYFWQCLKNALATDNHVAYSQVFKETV
In words: TLR7 inhibition reporter assay (HEK-Blue cells, SEAP reporter, gardiquimod stimulation). As to conditions: HEK-Blue cells overexpressing human TLR7, SEAP reporter, gardiquimod 7.5 μM. In outline: (§1)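 HEK-Blue cells with NF-κB/AP-1-driven SEAP reporter, pre-treated 30 min at room temperature with compound (0.05 nM-50 μM). Stimulants: gardiquimod 7.5 μM (TLR7), R848 15.9 μM (TLR8) or ODN2006 5 nM (TLR9). SEAP measured after 22 h at 37° C.; percent inhibition versus agonist-plus-DMSO and known-inhibitor wells.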
Background: In a reporter assay the amount or activity of a reporter protein is the signal.

In a further assay the target is T2, human TLR8 (Homo sapiens, UniProt Q9NR97).
T2 construct: host or cells: HEK-Blue cells
T2 sequence (Q9NR97 27-1041): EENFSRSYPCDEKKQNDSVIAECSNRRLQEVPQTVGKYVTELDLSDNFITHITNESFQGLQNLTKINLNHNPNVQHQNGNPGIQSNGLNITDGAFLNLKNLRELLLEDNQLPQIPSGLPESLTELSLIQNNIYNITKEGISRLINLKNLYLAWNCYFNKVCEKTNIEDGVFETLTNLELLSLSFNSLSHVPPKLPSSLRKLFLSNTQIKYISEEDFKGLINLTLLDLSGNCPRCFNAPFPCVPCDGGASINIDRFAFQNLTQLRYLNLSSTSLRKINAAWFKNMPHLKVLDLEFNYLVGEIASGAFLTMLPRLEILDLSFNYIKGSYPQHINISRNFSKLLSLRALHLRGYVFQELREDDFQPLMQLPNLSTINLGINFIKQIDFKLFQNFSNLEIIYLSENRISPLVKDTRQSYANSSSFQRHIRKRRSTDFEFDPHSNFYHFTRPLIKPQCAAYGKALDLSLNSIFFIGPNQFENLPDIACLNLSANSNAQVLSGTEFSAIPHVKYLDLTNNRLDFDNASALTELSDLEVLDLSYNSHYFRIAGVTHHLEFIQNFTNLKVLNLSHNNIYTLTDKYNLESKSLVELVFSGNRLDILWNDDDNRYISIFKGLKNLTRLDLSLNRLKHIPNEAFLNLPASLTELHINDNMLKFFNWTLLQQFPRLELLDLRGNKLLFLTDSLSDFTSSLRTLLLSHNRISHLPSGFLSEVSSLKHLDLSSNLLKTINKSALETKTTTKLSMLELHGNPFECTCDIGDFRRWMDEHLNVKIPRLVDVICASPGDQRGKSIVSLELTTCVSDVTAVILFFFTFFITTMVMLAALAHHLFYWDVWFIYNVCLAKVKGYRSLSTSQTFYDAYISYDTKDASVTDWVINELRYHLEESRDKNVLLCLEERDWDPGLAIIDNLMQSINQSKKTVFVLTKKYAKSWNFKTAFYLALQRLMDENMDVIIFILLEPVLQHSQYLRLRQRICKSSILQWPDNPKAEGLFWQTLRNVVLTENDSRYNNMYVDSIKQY
In words: TLR8 inhibition reporter assay (HEK-Blue cells, SEAP reporter, R848 stimulation). As to conditions: HEK-Blue cells overexpressing human TLR8, SEAP reporter, R848 15.9 μM. Summed up:
as §1

The target of a further assay is T3, human TLR9 (Homo sapiens, UniProt Q9NR96).
T3 construct: host or cells: HEK-Blue cells
T3 sequence (Q9NR96 26-1032): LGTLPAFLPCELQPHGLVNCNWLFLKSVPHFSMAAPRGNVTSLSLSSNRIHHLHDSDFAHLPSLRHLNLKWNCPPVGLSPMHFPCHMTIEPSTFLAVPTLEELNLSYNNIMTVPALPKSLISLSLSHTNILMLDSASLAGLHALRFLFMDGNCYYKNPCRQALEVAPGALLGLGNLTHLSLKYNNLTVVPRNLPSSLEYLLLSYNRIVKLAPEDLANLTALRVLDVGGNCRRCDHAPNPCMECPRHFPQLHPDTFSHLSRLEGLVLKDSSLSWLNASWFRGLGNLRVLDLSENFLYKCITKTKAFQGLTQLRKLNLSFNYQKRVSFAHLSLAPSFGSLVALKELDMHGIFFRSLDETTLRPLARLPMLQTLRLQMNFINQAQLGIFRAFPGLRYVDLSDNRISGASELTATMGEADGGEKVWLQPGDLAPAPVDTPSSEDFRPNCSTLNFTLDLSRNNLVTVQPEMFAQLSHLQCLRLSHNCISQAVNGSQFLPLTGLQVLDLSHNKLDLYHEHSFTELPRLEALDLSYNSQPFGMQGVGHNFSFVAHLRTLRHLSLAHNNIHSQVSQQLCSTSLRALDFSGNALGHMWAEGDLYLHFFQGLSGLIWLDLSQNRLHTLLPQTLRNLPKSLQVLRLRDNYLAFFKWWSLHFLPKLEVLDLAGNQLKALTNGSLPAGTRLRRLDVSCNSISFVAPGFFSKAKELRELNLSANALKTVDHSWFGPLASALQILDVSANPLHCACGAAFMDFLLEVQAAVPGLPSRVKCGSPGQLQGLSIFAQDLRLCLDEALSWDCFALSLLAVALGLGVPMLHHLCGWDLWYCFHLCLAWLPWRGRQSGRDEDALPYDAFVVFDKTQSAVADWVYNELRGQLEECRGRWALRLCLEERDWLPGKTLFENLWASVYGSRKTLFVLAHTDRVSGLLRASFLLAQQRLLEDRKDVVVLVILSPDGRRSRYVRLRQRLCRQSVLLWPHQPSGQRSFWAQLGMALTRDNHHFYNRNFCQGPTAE
Briefly: TLR9 inhibition reporter assay (HEK-Blue cells, SEAP reporter, ODN2006 stimulation). The note with it: HEK-Blue cells overexpressing human TLR9, SEAP reporter, ODN2006 5 nM. In outline: as §1

As for `Cc1cc(-c2[nH]c3ccc([C@@H]4C[C@H]4C(=O)N(C)C4CC5CCN4CC5)cc3c2C(C)C)ccn1` (stereo partly drawn) [Example 459], the results for the IC50 on human TLR7, against human TLR8 and against human TLR9 were 19 nM, 10 nM and 174 nM, respectively.
For the compound `COc1cc(-c2[nH]c3ccc(C4CN(C)CCO4)cc3c2C(C)C)cn2ncnc12` (stereo not drawn) [Example 299], the IC50 (as a rule, the concentration that gives 50% inhibition) came to 2 nM against human TLR7, 3.3 nM at human TLR8 and 5570 nM against human TLR9.
The like results for `COc1cc(-c2[nH]c3ccc(C4CCC(NCC(=O)NC5COC5)CC4)cc3c2C(C)C)cn2ncnc12` (stereo not drawn) [Example 164] were, in that order, 1 nM, 7.1 nM and 1920 nM.
Take `Cc1c(-c2[nH]c3ccc(C4CCC(NC5COC5)CC4)cc3c2C(C)C)cn(C)c(=O)c1C` (stereo not drawn) [Example 478]: the IC50 against human TLR7 came to 20 nM; at human TLR8, 7.6 nM; against human TLR9, 10200 nM.
With `Cc1c(-c2[nH]c3ccc(CC4CN(C5CCOCC5)C4)cc3c2C(C)C)cn(C)c(=O)c1C` [Example 416], the results for the IC50 on human TLR7, against human TLR8 and against human TLR9 were 115 nM, 6.4 nM and 4090 nM, respectively.
The corresponding values for `Cc1cc(-c2[nH]c3ccc(C4CN(C5COC5)CCO4)cc3c2C(C)C)cn2ncnc12` (stereo not drawn) [Example 290] are 36 nM, 177 nM and above 50000 nM.
Consider `Cc1c(-c2[nH]c3ccc(C4CC5CN(C(=O)CN(C)C)CC5C4)cc3c2C(C)C)cn2cnnc2c1C` (stereo not drawn) [Example 521], for which the values for the IC50 on human TLR7, on human TLR8 and against human TLR9 were 4 nM, 37 nM and 7020 nM, respectively.
The like results for `Cc1c(-c2[nH]c3ccc(C4CNCCO4)cc3c2C(C)C)cn2ncnc2c1C` (stereo not drawn) [Example 288] were, in that order, 0.61 nM, 0.52 nM and 3160 nM.
The like results for `COc1cc(-c2[nH]c3ccc(C4CCCN(CC(N)=O)C4)cc3c2C(C)C)cn2ncnc12` (stereo not drawn) [Example 229] were, in that order, 4 nM, 8.1 nM and 6380 nM.
The like results for `Cc1cc(-c2[nH]c3ccc([C@@H]4C[C@H]4C(=O)NC4CC5CCN4CC5)cc3c2C(C)C)ccn1` (stereo partly drawn) [Example 460] were, in that order, 51 nM, 31 nM and 179 nM.
Turning to `COc1cc(-c2[nH]c3ccc(C4CCCN(CC(=O)N(C)C)C4)cc3c2C(C)C)cn2ncnc12` (stereo not drawn) [Example 224], the IC50 at human TLR7 was found to be 2 nM; at human TLR8, 16 nM; at human TLR9, 1830 nM.
The corresponding values for `Cc1cc(-c2[nH]c3ccc(C4CCC(O)CC4)cc3c2C(C)C)ccn1` (stereo not drawn) [Example 174] are 164 nM, 518 nM and above 50000 nM.
Take `Cc1c(-c2[nH]c3ccc(C4CCC(NCC(=O)N(C)C)CC4)cc3c2C(C)C)cn(C)c(=O)c1C` (stereo not drawn) [Example 473]: the IC50 at human TLR7 came to 34 nM; on human TLR8 it was 15 nM; against human TLR9 it was 8970 nM.
Turning to `Cc1cc(-c2[nH]c3ccc(C4CCC(NC(=O)CN(C)C)CC4)cc3c2C(C)C)cn2ncnc12` (stereo not drawn) [Example 121], the IC50 at human TLR7 worked out at 0.41 nM; against human TLR8 it was 2.6 nM; against human TLR9, 7150 nM.
The corresponding values for `CNCC(=O)N1CCCC(c2ccc3[nH]c(-c4cn5ncnc5c(C)c4C)c(C(C)C)c3c2)C1` (stereo not drawn) [Example 213] are 3 nM, 5 nM and 6520 nM.
`Cc1cc(-c2[nH]c3ccc(C4CCC(C(=O)N5CCN(C)CC5)CC4)cc3c2C(C)C)cn2ncnc12` (single isomer, unassigned) [Example 156]: the IC50 stood at 0.82 nM on human TLR7, 6.7 nM on human TLR8 and 3640 nM on human TLR9.
The corresponding values for `COc1cc(-c2[nH]c3ccc(C4CCC(NCC(=O)NC5COC5)CC4)cc3c2C(C)C)cn2ncnc12` (stereo not drawn) [Example 165] are 0.31 nM, 1.7 nM and 1990 nM.
The like results for `Cc1cc(-c2[nH]c3ccc(CCN4CCC(F)CC4)cc3c2C(C)C)cn(C)c1=O` [Example 407] were, in that order, 9 nM, 1.4 nM and 13600 nM.
As for `COc1ccc(-c2[nH]c3ccc(C4CCC(O)CC4)cc3c2C(C)C)cc1OC` (stereo not drawn) [Example 451], the 50% inhibitory concentration (IC50) at human TLR7 was found to be 139 nM; at human TLR8, 238 nM; against human TLR9, 19500 nM.
With `Cc1cc(-c2[nH]c3ccc(C4CN5CCC4CC5)cc3c2C(C)C)cc(C)n1` (single isomer, unassigned) [Example 362, 3-(2-(2,6-dimethylpyridin-4-yl)-3-isopropyl-1H-indol-5-yl)quinuclidine], the IC50 at human TLR7 was 6 nM; against human TLR8 it was 14 nM; on human TLR9, 432 nM.
The like results for `COc1cc(-c2[nH]c3ccc(C4CCC(NC(=O)CNC5(C)COC5)CC4)cc3c2C(C)C)cn2ncnc12` (stereo not drawn) [Example 135] were, in that order, 2 nM, 12 nM and 43800 nM.
